Tested on: NFκB
Test: NFκB induction in primary monocytes (FIG. 9A-9C)
Format: cell-based

OCc1ccc(-c2nccc3c2[nH]c2ccccc23)o1 [Compound 8]
suppression of NFκB induction in primary monocytes: suppression of NFκB induction

From patent US20260199299A1, “BETA CARBOLINES AS TOPICAL ANTI-INFLAMMATORY AGENTS FOR APPLICATION TO MUCOUS MEMBRANES” (President and Fellows of Harvard College, priority 2022, published 2026)
